According to patent US7138361B2, “Herbicidal heterocycles” (E. I. du Pont de Nemours and Company, priority 2000, dated 2006):

How the values were obtained:
Type in all cases: in vivo
[1] = test system: Surinam grass (Brachiaria decumbens); experiment: Test B postemergence; conditions: 13 to 15 days
Procedure, shortened: (§1)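 Preemergence: seeds planted and treated with test chemicals in non-phytotoxic solvent with surfactant; postemergence on plants 2–18 cm (1- to 4-leaf stage). Kept in greenhouse 13–15 days, then visually rated against controls on a 0 (no effect) to 100 (complete control) scale.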

[2] = test system: barnyardgrass (Echinochloa crus-galli); experiment: Test B postemergence; conditions: 13 to 15 days
Procedure, shortened: as §1

[3] = test system: blackgrass (Alopecurus myosuroides); experiment: Test B postemergence; conditions: 13 to 15 days
Procedure, shortened: as §1

[4] = test system: cocklebur (Xanthium strumarium); experiment: Test B postemergence; conditions: 13 to 15 days
Procedure, shortened: as §1

corn (Zea mays) [5] = experiment: Test B postemergence; conditions: 13 to 15 days
Procedure, shortened: as §1

[6] = test system: crabgrass (Digitaria sanguinalis); experiment: Test B postemergence; conditions: 13 to 15 days
Procedure, shortened: as §1

[7] = test system: giant foxtail (Setaria faberii); experiment: Test B postemergence; conditions: 13 to 15 days
Procedure, shortened: as §1

[8] = test system: lambsquarters (Chenopodium album); experiment: Test B postemergence; conditions: Rate 500 g/ha, scale 0 to 100, 0 is no effect, 100 is complete control, 13 to 15 days
Procedure, shortened: as §1

[9] = test system: morning glory (Ipomoea hederacea); experiment: Test B postemergence; conditions: Rate 500 g/ha, scale 0 to 100, 0 is no effect, 100 is complete control, 13 to 15 days
Procedure, shortened: as §1

[10] = test system: pigweed (Amaranthus retroflexus); experiment: Test B postemergence; conditions: Rate 500 g/ha, scale 0 to 100, 0 is no effect, 100 is complete control, 13 to 15 days
Procedure, shortened: as §1

[11] = test system: velvetleaf (Abutilon theophrasti); experiment: Test B postemergence; conditions: Rate 500 g/ha, scale 0 to 100, 0 is no effect, 100 is complete control, 13 to 15 days
Procedure, shortened: as §1

[12] = test system: wheat (Triticum aestivum); experiment: Test B postemergence; conditions: Rate 500 g/ha, scale 0 to 100, 0 is no effect, 100 is complete control, 13 to 15 days
Procedure, shortened: as §1

wild oat (Avena fatua) = experiment: Test B postemergence; conditions: Rate 500 g/ha, scale 0 to 100, 0 is no effect, 100 is complete control, 13 to 15 days
Procedure, shortened: as §1

[13] = test system: Surinam grass (Brachiaria decumbens); experiment: Test B preemergence
Procedure, shortened: as §1

[14] = test system: barnyardgrass (Echinochloa crus-galli); experiment: Test B preemergence
Procedure, shortened: as §1

[15] = test system: cocklebur (Xanthium strumarium); experiment: Test B preemergence
Procedure, shortened: as §1

corn (Zea mays) [16] = experiment: Test B preemergence
Procedure, shortened: as §1

[17] = test system: crabgrass (Digitaria sanguinalis); experiment: Test B preemergence
Procedure, shortened: as §1

[18] = test system: giant foxtail (Setaria faberii); experiment: Test B preemergence
Procedure, shortened: as §1

[19] = test system: lambsquarters (Chenopodium album); experiment: Test B preemergence
Procedure, shortened: as §1

[20] = test system: morning glory (Ipomoea hederacea); experiment: Test B preemergence
Procedure, shortened: as §1

[21] = test system: pigweed (Amaranthus retroflexus); experiment: Test B preemergence
Procedure, shortened: as §1

rice (Oryza saliva) = experiment: Test B preemergence
Procedure, shortened: as §1

[22] = test system: velvetleaf (Abutilon theophrasti); experiment: Test B preemergence
Procedure, shortened: as §1

[23] = test system: smallflower flatsedge (Cyperus difformis); experiment: Test C flooded paddy test; conditions: for Flatsedge plant response rating: Flooded Paddy, scale 0 to 100, 0 no effect, 100 complete control; for Plant response rating, Flatsedge: flooded paddy test, scale 0 to 100 (0 no effect, 100 complete control)
Procedure, shortened: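 Visual ratings (0 = no effect, 100 = complete control) were made 12–14 days after treatment, relative to greenhouse controls. Plants in the flooded paddy test were rice, smallflower flatsedge, duck salad and barnyardgrass, treated at the 2-leaf stage.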

Sunflower = experiment: Test C preemergence; conditions: Rate 250 g/ha, scale 0 to 100, 0 no effect, 100 complete control
[24] = Rate 125 g/ha, scale 0 (no effect) to 100 (complete control)
[25] = Rate 500 g/ha, scale 0 to 100, 0 is no effect, 100 is complete control
[26] = Preemergence, Rate 500 g/ha, scale 0 to 100, 0 no effect, 100 complete control
[27] = preemergence, Rate 125 g/ha, scale of 0 to 100 where 0 is no effect and 100 is complete control, 13 to 15 days

Compound: CCCC(C)c1ccn(C2SCN(c3cccc(OC(F)(F)F)c3)C2=O)n1 (stereo not shown) [Compound 90]
- Plant response rating, Surinam grass [1, 24]: 0
- Plant response rating, Surinam grass [1, 25]: 30
- Plant response rating, Barnyardgrass [2, 24]: 20
- Plant response rating, Barnyardgrass [2, 25]: 80
- Plant response rating, Blackgrass [3, 24]: 0
- Plant response rating, Blackgrass [3, 25]: 0
- Plant response rating, Cocklebur [4, 24]: 20
- Plant response rating, Cocklebur [4, 25]: 60
- Plant response rating, Corn (corn (Zea mays) [5]; [24]): 0
- Plant response rating, Corn (corn (Zea mays) [5]; [25]): 10
- Plant response rating, Crabgrass [6, 24]: 20
- Plant response rating, Crabgrass [6, 25]: 50
- Plant response rating, Foxtail, Giant [7, 24]: 0
- Plant response rating, Foxtail, Giant [7, 25]: 40
- Plant response rating, Lambsquarters [8]: 100
- Plant response rating, Morningglory [9]: 70
- Plant response rating, Pigweed [10]: 90
- Plant response rating, Velvetleaf [11]: 40
- Plant response rating, Wheat [12]: 0
- Plant response rating, Wild Oat (wild oat (Avena fatua)): 20
- Plant response rating, Surinam grass [13, 26]: 80
- Plant response rating, Surinam grass [13, 27]: 20
- Plant response rating, Barnyardgrass [14, 26]: 100
- Plant response rating, Barnyardgrass [14, 27]: 50
- Plant response rating, Cocklebur [15, 26]: 0
- Plant response rating, Cocklebur [15, 27]: 0
- Plant response rating, Corn (corn (Zea mays) [16]; [26]): 20
- Plant response rating, Corn (corn (Zea mays) [16]; [27]): 0
- Plant response rating, Crabgrass [17, 26]: 100
- Plant response rating, Crabgrass [17, 27]: 90
- Plant response rating, Foxtail, Giant [18, 26]: 100
- Plant response rating, Foxtail, Giant [18, 27]: 80
- Plant response rating, Lambsquarters [19, 26]: 100
- Plant response rating, Lambsquarters [19, 27]: 100
- Plant response rating, Morningglory [20, 26]: 0
- Plant response rating, Morningglory [20, 27]: 0
- Plant response rating, Pigweed [21, 26]: 100
- Plant response rating, Pigweed [21, 27]: 80
- Plant response rating, Rice (rice (Oryza saliva); [26]): 0
- Plant response rating, Rice (rice (Oryza saliva); [27]): 0
- Plant response rating, Velvetleaf [22, 26]: 0
- Plant response rating, Velvetleaf [22, 27]: 0
- Flatsedge plant response rating ([23]; Rate 250 g/ha): 100
- Flatsedge plant response rating ([23]; Rate 500 g/ha): 100
- Plant response rating, Flatsedge ([23]; Rate 62 g/ha): 100
- Plant response rating, Flatsedge ([23]; Rate 125 g/ha): 100
- Plant response rating, Sunflower (Sunflower): 10

Compound: CCOc1cc(N2CCC(n3ccc(C(C)(C)C)n3)C2=O)ccc1C (stereo not shown) [Compound 106]
- Plant response rating, Surinam grass [1, 24]: 0
- Plant response rating, Surinam grass [1, 25]: 0
- Plant response rating, Barnyardgrass [2, 24]: 0
- Plant response rating, Barnyardgrass [2, 25]: 0
- Plant response rating, Blackgrass [3, 24]: 0
- Plant response rating, Blackgrass [3, 25]: 0
- Plant response rating, Cocklebur [4, 24]: 90
- Plant response rating, Cocklebur [4, 25]: 90
- Plant response rating, Corn (corn (Zea mays) [5]; [24]): 0
- Plant response rating, Corn (corn (Zea mays) [5]; [25]): 0
- Plant response rating, Crabgrass [6, 24]: 0
- Plant response rating, Crabgrass [6, 25]: 0
- Plant response rating, Foxtail, Giant [7, 24]: 0
- Plant response rating, Foxtail, Giant [7, 25]: 0
- Plant response rating, Lambsquarters [8]: 100
- Plant response rating, Morningglory [9]: 100
- Plant response rating, Pigweed [10]: 90
- Plant response rating, Velvetleaf [11]: 80
- Plant response rating, Wheat [12]: 0
- Plant response rating, Wild Oat (wild oat (Avena fatua)): 0
- Plant response rating, Surinam grass [13, 26]: 100
- Plant response rating, Surinam grass [13, 27]: 100
- Plant response rating, Barnyardgrass [14, 26]: 100
- Plant response rating, Barnyardgrass [14, 27]: 90
- Plant response rating, Cocklebur [15, 26]: 100
- Plant response rating, Cocklebur [15, 27]: 30
- Plant response rating, Corn (corn (Zea mays) [16]; [26]): 30
- Plant response rating, Corn (corn (Zea mays) [16]; [27]): 30
- Plant response rating, Crabgrass [17, 26]: 100
- Plant response rating, Crabgrass [17, 27]: 100
- Plant response rating, Foxtail, Giant [18, 26]: 60
- Plant response rating, Foxtail, Giant [18, 27]: 40
- Plant response rating, Lambsquarters [19, 26]: 100
- Plant response rating, Lambsquarters [19, 27]: 100
- Plant response rating, Morningglory [20, 26]: 100
- Plant response rating, Morningglory [20, 27]: 100
- Plant response rating, Pigweed [21, 26]: 100
- Plant response rating, Pigweed [21, 27]: 100
- Plant response rating, Rice (rice (Oryza saliva); [26]): 100
- Plant response rating, Rice (rice (Oryza saliva); [27]): 0
- Plant response rating, Velvetleaf [22, 26]: 100
- Plant response rating, Velvetleaf [22, 27]: 0
- Flatsedge plant response rating ([23]; Rate 250 g/ha): 100
- Flatsedge plant response rating ([23]; Rate 500 g/ha): 100
- Plant response rating, Flatsedge ([23]; Rate 62 g/ha): 80
- Plant response rating, Flatsedge ([23]; Rate 125 g/ha): 90
- Plant response rating, Sunflower (Sunflower): 90
